The values below come from the supplement of paper PMC10883282.

The assay relates to RD. The experiment in a line: relative viability vs DMSO control (72 h) (fraction); higher = more viable cells. Summed up:
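Sarcoma cell lines in 384-well plates, seeded to reach 80–90% confluence, were given compound after 24 h and kept 72 h at 37 °C, 5% CO2, with 0.1% DMSO vehicle and a 5 µM positive control. Relative viability came from ATPLite as percent growth, averaged over up to triplicate wells. On the rescaled values, 1 equals full and 0 equals none.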

The structures appear in SMILES notation. ± gives the standard deviation of the averaged measurements.

Consider `C[C@]1(O)C[C@@H](c2nc(-c3ccc4ccc(-c5ccccc5)nc4c3)c3c(N)nccn32)C1` [Linsitinib], for which the relative viability was found to be 1.03 ± 0.04 (0.00017 µM); 1.09 ± 0.066 (0.00051 µM); 1.1 ± 0.047 (0.00152 µM); 1.06 ± 0.05 (0.00457 µM); 1.039 ± 0.0018 (0.01372 µM); 1.03 ± 0.035 (0.04115 µM). Further, the relative viability was 0.875 ± 0.048 (0.1235 µM); 0.672 ± 0.0074 (0.3704 µM); 0.639 ± 0.028 (1.111 µM); 0.633 ± 0.02 (3.333 µM); 0.568 ± 0.0034 (10 µM).

In turn, `C=CC(=O)N1CCC([C@@H]2CCNc3c(C(N)=O)c(-c4ccc(Oc5ccccc5)cc4)nn32)CC1` [Zanubrutinib] gave a relative viability (0.00017 µM) of 0.942 ± 0.064; a relative viability (0.00051 µM) of 0.952 ± 0.048; a relative viability (0.00152 µM) of 0.964 ± 0.068; a relative viability (0.00457 µM) of 0.958 ± 0.058; a relative viability (0.01372 µM) of 0.952 ± 0.046; a relative viability (0.04115 µM) of 0.96 ± 0.079. The relative viability reads like this: (0.1235 µM) 0.926 ± 0.075; (0.3704 µM) 0.893 ± 0.11; (1.111 µM) 0.876 ± 0.1; (3.333 µM) 0.847 ± 0.081; (10 µM) 0.843 ± 0.06.

For the compound `Cn1cc(-c2cc3c(N4CCN(c5ncc([C@@](C)(N)c6ccc(F)cc6)cn5)CC4)ncnn3c2)cn1` [Avapritinib], the relative viability is, setting by setting: (0.00017 µM) 1.04 ± 0.055; (0.00051 µM) 1.03 ± 0.031; (0.00152 µM) 1.06 ± 0.02; (0.00457 µM) 1.05 ± 0.041; (0.01372 µM) 1.05 ± 0.033; (0.04115 µM) 1.03 ± 0.045. The compound also returned a relative viability (0.1235 µM) of 1.04 ± 0.02; a relative viability (0.3704 µM) of 1.06 ± 0.043; a relative viability (1.111 µM) of 1.03 ± 0.043; a relative viability (3.333 µM) of 0.939 ± 0.03; a relative viability (10 µM) of 0.813 ± 0.087.

For the compound `CC(=O)Nc1cccc(-n2c(=O)n(C3CC3)c(=O)c3c(Nc4ccc(I)cc4F)n(C)c(=O)c(C)c32)c1` [Trametinib], the relative viability was determined as 1.08 ± 0.027 (0.00017 µM); 1.07 ± 0.064 (0.00051 µM); 0.971 ± 0.099 (0.00152 µM); 0.838 ± 0.044 (0.00457 µM); 0.669 ± 0.07 (0.01372 µM); 0.608 ± 0.051 (0.04115 µM). This compound registered a relative viability (0.1235 µM) of 0.584 ± 0.032; a relative viability (0.3704 µM) of 0.558 ± 0.038; a relative viability (1.111 µM) of 0.556 ± 0.03; a relative viability (3.333 µM) of 0.523 ± 0.04; a relative viability (10 µM) of 0.477 ± 0.022.
